Experimental data published in patent US5066658A, “Substituted hydroxyureas” (Ortho Pharmaceutical Corporation, priority 1990, dated 1991).

Assays:
[1] = test system: Arachidonate-Induced Ear Edema; assay: Arachidonic Acid-Induced Ear Edema Assay; assay type: in vivo; conditions: topical, mouse ear; for inhibition in vivo at 0.4 mg: 400 μg topically; for inhibition in vivo at 0.2 mg: 200 μg topically
Experimental: The topical anti-inflammatory activity of a compound was determined by its ability to inhibit an experimentally-induced inflammation in the mouse ear. Basically, four milligrams of arachidonic acid in acetone were applied to the dorsal surface of one ear with a microliter pipette. The mice were sacrificed at various times after application of arachidonic acid (one-half to six hours). A section of each ear was removed with a 7 mm round punch and weighed on an electronic or analytical balance. The difference in weight between treated and untreated ears was determined. Compounds to be evaluated for anti-inflammatory activity can be incorporated directly into the irritant mixture or at various times prior to or after application of arachidonic acid.
The degree of anti-inflammatory activity is shown in Table I, and is expressed in terms of the percent inhibition of ear weight increase.

[2] = test system: Arachidonate-Induced Bronchospasm (lipoxygenase); assay: Pulmonary Mechanics Assay: arachidonate-induced bronchospasm with indomethacin (SRS-A response, indicative of lipoxygenase inhibition); assay type: in vivo, male Hartley guinea pigs; conditions: Cavia porcellus, guinea pig
Summary of the method: (§1)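 Urethane-anaesthetised (2 g/kg i.p.), succinylcholine-paralysed, ventilated male Hartley guinea pigs; compound given by various routes between i.v. arachidonic acid challenges (0.5-1.0 mg/kg; then 5-10 mg/kg after indomethacin 10 mg/kg i.v.). Cdyn and RL changes expressed as percent inhibition of control.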

[3] = test system: Arachidonate-Induced Bronchospasm (cyclooxygenase); assay: Pulmonary Mechanics Assay: arachidonate-induced bronchospasm without indomethacin (indicative of cyclooxygenase inhibition); assay type: in vivo, male Hartley guinea pigs; conditions: Cavia porcellus, guinea pig
Summary of the method: as §1

5-lipoxygenase = molecular target: T1, 5-lipoxygenase (Rattus norvegicus, UniProt P12527); assay: Inhibition of 5-lipoxygenase in cell-free homogenate of rat basophilic leukemia (RBL-1) cells; assay type: biochemical; conditions: RBL-1 cell-free homogenate; for inhibition at 3 µM: read-out: Inhibition of 5-Lipoxygenase, % Inh. @ 3 μM
T1 construct: The cell-free homogenate was prepared by sonication of the cells followed by centrifugation at 40,000 xg; endogenous in cells; host or cells: RBL-1 (rat basophilic leukemia) cells, 40,000 xg supernatant of the sonicate
T1 sequence (P12527 1-673): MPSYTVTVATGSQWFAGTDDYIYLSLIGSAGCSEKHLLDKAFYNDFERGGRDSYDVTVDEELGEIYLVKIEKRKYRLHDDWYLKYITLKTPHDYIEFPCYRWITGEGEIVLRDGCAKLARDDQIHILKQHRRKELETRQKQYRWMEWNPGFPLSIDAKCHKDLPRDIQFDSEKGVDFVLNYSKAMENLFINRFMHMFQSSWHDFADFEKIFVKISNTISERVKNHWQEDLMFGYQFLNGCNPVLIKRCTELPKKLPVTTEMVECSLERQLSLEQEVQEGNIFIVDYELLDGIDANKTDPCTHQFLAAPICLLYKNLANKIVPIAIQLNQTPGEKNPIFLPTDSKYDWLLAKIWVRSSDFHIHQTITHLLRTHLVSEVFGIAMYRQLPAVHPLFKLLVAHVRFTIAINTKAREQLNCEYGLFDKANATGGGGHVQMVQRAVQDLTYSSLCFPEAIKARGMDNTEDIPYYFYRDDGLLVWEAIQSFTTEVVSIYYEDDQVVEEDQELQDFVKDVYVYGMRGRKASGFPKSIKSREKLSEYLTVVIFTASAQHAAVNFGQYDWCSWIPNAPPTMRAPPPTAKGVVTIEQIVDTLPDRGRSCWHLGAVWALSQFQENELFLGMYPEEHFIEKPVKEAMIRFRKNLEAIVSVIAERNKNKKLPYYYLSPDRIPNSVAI
Summary of the method: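 40,000 xg supernatant of sonicated RBL-1 cell homogenate incubated with ^14C-arachidonic acid and CaCl2, with drug or vehicle. Products extracted after acidification, separated by TLC and quantified by scintillation counting; IC50 or percent inhibition at 3 μM reported.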

[4] = read-out: Inhibition of Arachidonate-Induced Ear Edema, % Inh. (μg topically)
[5] = IV dosing, read-out: Inhibition of Arachidonate-Induced Bronchospasm (IV Dosing), % Inh. with Indomethacin
[6] = IV dosing, read-out: Inhibition of Arachidonate-Induced Bronchospasm (IV Dosing), % Inh. without Indomethacin

| Structure (SMILES) | Inhibition of Arachidonate-Induced Ear Edema, ED50 [1] [µg] | inhibition in vivo at 0.4 mg [1, 4] [%] | inhibition in vivo at 20 mg/kg ([2]; IV dosing, 20 mg/kg, read-out: Inhibition of Arachidonate-Induced Bronchospasm (IV Dosing), % Inh. with Indomethacin) [%] | inhibition in vivo at 20 mg/kg ([3]; IV dosing, 20 mg/kg, read-out: Inhibition of Arachidonate-Induced Bronchospasm (IV Dosing), % Inh. without Indomethacin) [%] | IC50 (5-lipoxygenase) [nM] | inhibition in vivo at 0.1 mg ([1]; 100 μg topically, read-out: Inhibition of Arachidonate-Induced Ear Edema, % Inh. (μg topically)) [%] | inhibition in vivo at 15 mg/kg [2, 5] [%] | inhibition in vivo at 15 mg/kg [3, 6] [%] | inhibition at 3 µM (5-lipoxygenase) [%] | inhibition in vivo at 0.2 mg [1, 4] [%] | inhibition in vivo at 50 mg/kg ([2]; ID dosing, 50 mg/kg, read-out: Inhibition of Arachidonate-Induced Bronchospasm (ID Dosing), % Inh. with Indomethacin) [%] | inhibition in vivo at 50 mg/kg ([3]; ID dosing, 50 mg/kg, read-out: Inhibition of Arachidonate-Induced Bronchospasm (ID Dosing), % Inh. without Indomethacin) [%] |
| --- | --- | --- | --- | --- | --- | --- | --- | --- | --- | --- | --- | --- |
| CCCCCCCCCCN1CCN(O)C1=O [Example 25, 1-Decyl-3-hydroxyimidazolidin-2-one] | 90 | 81 | 62 | 85 | 740 | – | – | – | – | – | – | – |
| COc1cc2c(cc1OC)CN(C(=O)N(C)O)CC2 [Example 51, 6,7-Dimethoxy-N-hydroxy-N-methyl-1,2,3,4-tetrahydroisoquinoline-2-carboxamide] | – | – | – | – | – | 28 | 60 | < 20 | 24 | – | – | – |
| CCCCCCCCCCCCCCN(O)C(=O)N(C)C [Example 15, N,N-Dimethyl-N'-tetradecyl-N'-hydroxyurea] | – | – | – | – | – | – | – | – | 100 | 26 | 46 | -26 |
| CCCCCCCCCCN(O)C(=O)N(CC)CC [Example 1, N,N-Diethyl-N'-decyl-hydroxyurea] | – | 52 | – | – | – | – | 38 | 54 | 100 | – | – | – |
| CCCCCCCCCCN(C)C(=O)N(C)O [Example 17, N-Decyl-N,N'-dimethyl-N'-hydroxyurea] | 24 | 88 | – | – | 160 | – | 79 | 41 | – | – | – | – |
| CCCCCN1CCN(O)C1=O [Example 23, 1-pentyl-3-hydroxyimidazolidin-2-one] | – | – | – | – | > 10000 | – | 52 | 97 | – | 29 | – | – |
